Results reported in patent publication US11613527B2, “Enzyme inhibitors” (KalVista Pharmaceuticals Limited, priority 2019, dated 2023).
Values after ≈ are worked out from the molar mass of the structure shown.

Key:
Human FXIa = Human FXIa (Homo sapiens (Human), UniProt P03951); assay: Determination of the % inhibition for FXIa (fluorogenic substrate Z-Gly-Pro-Arg-AFC; 40 μM or IC50); format: biochemical
Outline: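 Inhibition measured from initial reaction rate, followed as absorbance change at 410 nm, with substrate Z-Gly-Pro-Arg-AFC at 25 °C. Compound tested at a single 40 μM dose for percent inhibition, or across several concentrations to derive IC50 against human FXIa.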

Human KLK1 = Human KLK1 (Homo sapiens (Human), UniProt P06870); assay: Determination of the IC50 for KLK1 (fluorogenic substrate H-DVal-Leu-Arg-AFC); format: biochemical
Outline: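 Inhibition read as initial rate via optical absorbance change at 410 nm, giving IC50. Reactions combined human KLK1, the substrate H-DVal-Leu-Arg-AFC and varied compound concentrations at 25° C.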

[1] = Solubility after 24 hrs in Fasted State Simulated Intestinal Fluid (FaSSIF); format: physicochemical; details: Fasted State Simulated Intestinal Fluid (FaSSIF), thermodynamic from solid, 24 hrs at 37° C., nominal concentration 1 mg/mL (as free base)
Description: Selected compounds were further screened for solubility in Fasted State Simulated Intestinal Fluid (FaSSIF).
Approximately 1 mg of test compound is accurately weighed into a 2 mL vial. Volumes of the FaSSIF solution (pre-heated to 37° C.) were added to a vial to give a nominal concentration of 1 mg/mL (as free base). The FaSSIF solution was prepared on the day of use. The samples were vortexed before being placed in a Titramax 1000 shaker for 24 hrs at 37° C. and approximately 500 rpm. The samples were transferred to eppendorf tubes and centrifuged at 15,000 g (r.c.f.) for 10 min at 37° C. and analysed for concentration of test compound by LCMS.

Human plasma kallikrein = Human plasma kallikrein (Homo sapiens (Human), UniProt P03952); assay: Determination of the IC50 for plasma kallikrein (fluorogenic substrate H-DPro-Phe-Arg-AFC); format: biochemical; details: class symbols A-D, read-out: IC50 (human PKal)
Outline: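 IC50 values come from initial rates, monitored as the change in absorbance at 410 nm, of residual enzyme activity. Test compound was present at various concentrations with the fluorogenic substrate H-DPro-Phe-Arg-AFC, and the reaction was run at 25° C.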

Human KLK1, sequence (P06870 25-262): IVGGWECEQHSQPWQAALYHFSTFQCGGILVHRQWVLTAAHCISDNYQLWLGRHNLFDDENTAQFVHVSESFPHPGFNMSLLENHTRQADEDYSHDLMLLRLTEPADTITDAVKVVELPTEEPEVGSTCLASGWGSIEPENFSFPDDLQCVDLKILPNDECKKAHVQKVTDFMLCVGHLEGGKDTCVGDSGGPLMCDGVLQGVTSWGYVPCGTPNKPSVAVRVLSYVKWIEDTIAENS
Human FXIa, sequence (P03951 388-625): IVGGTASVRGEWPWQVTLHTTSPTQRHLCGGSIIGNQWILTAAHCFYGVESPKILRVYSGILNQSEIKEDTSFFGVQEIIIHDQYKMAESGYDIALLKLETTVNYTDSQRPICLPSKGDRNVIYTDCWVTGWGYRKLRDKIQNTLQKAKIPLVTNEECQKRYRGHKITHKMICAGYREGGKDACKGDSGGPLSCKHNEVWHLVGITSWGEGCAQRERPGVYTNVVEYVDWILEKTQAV
Human FXIa, sequence (P03951 19-387 partner): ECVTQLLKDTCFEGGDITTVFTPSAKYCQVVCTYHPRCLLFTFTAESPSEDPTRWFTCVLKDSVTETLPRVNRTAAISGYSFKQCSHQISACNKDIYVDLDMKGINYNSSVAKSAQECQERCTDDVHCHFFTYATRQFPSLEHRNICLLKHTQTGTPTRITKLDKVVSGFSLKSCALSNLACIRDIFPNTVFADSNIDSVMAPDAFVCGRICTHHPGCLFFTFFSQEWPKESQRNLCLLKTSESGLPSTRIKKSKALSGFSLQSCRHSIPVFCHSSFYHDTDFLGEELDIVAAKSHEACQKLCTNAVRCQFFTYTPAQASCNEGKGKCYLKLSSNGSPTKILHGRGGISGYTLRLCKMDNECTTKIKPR
Human plasma kallikrein, sequence (P03952 391-638): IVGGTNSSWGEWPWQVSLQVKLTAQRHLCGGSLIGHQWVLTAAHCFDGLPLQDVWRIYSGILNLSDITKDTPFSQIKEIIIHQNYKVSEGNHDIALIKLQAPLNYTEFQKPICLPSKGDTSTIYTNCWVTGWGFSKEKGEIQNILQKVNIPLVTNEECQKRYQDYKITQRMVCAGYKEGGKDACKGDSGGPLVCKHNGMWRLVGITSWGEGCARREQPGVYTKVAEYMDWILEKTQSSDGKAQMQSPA
Human plasma kallikrein, sequence (P03952 20-390 partner): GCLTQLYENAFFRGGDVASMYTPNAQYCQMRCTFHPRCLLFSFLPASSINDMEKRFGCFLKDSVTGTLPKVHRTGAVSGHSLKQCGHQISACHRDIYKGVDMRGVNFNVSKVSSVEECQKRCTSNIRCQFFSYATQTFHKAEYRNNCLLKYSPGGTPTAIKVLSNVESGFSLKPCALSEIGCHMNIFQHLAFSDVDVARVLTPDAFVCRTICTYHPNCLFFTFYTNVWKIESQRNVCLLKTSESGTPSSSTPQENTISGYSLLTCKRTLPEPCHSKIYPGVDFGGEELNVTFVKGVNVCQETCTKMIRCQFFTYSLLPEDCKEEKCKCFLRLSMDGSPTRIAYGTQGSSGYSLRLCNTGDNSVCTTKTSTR

Row | SMILES | IC50 (Human FXIa) [µM] | IC50 (Human KLK1) [µM] | solubility at 24 h [1] [µg/mL] | IC50 (Human plasma kallikrein) [µM]
1 | COc1ccc(-n2cc(C)nn2)c(CNC(=O)c2cn(Cc3ccc4c(c3)CN(C)CC4)c(C)n2)c1F [Example 151, N-{[2-fluoro-3-methoxy-6-(4-methyl-1,2,3-triazol-1-yl)phenyl]methyl}-2-methyl-1-[(2-methyl-3,4-dihydro-1H-isoquinolin-7-yl)methyl]imidazole-4-carboxamide] | > 40 | > 40 | 750 (≈ 1490 µM) | 0.01 to 0.03
2 | COCc1nn(Cc2ccc3c(c2)CN(C)CC3)cc1C(=O)NCc1c(-n2ccc(C#N)n2)ccc(OC)c1F [Example 11, N-{[6-(3-cyanopyrazol-1-yl)-2-fluoro-3-methoxyphenyl]methyl}-3-(methoxymethyl)-1-[(2-methyl-3,4-dihydro-1H-isoquinolin-7-yl)methyl]pyrazole-4-carboxamide] | 18.9 | > 40 | 730 (≈ 1340 µM) | < 0.01
3 | COCc1nn(Cc2ccc3c(c2)CCN(C(C)C)C3)cc1C(=O)NCc1c(-n2cnc(C(F)(F)F)n2)ccc(OC)c1F [Example 45, N-({2-fluoro-3-methoxy-6-[3-(trifluoromethyl)-1,2,4-triazol-1-yl]phenyl}methyl)-1-[(2-isopropyl-3,4-dihydro-1H-isoquinolin-6-yl)methyl]-3-(methoxymethyl)pyrazole-4-carboxamide] | > 40 | > 40 | 840 (≈ 1360 µM) | < 0.01
4 | COc1ccc(-n2cc(C)nn2)c(CNC(=O)c2cn(Cc3cc4n(n3)CCN(C)C4)nc2C(F)(F)F)c1F [Example 125, N-{[2-fluoro-3-methoxy-6-(4-methyl-1,2,3-triazol-1-yl)phenyl]methyl}-1-({5-methyl-4H,6H,7H-pyrazolo[1,5-a]pyrazin-2-yl}methyl)-3-(trifluoromethyl)pyrazole-4-carboxamide] | > 40 | > 40 | 650 (≈ 1190 µM) | < 0.01
5 | COCc1nn(Cc2cnc3c(c2)CCN(C(C)C)C3)cc1C(=O)NCc1c(-n2cc(C)nn2)ccc(OC)c1F [Example 117, N-{[2-fluoro-3-methoxy-6-(4-methyl-1,2,3-triazol-1-yl)phenyl]methyl}-1-[(7-isopropyl-6,8-dihydro-5H-1,7-naphthyridin-3-yl)methyl]-3-(methoxymethyl)pyrazole-4-carboxamide] | > 40 | > 40 | 900 (≈ 1600 µM) | 0.01 to 0.03
6 | COCc1nc(C(=O)NCc2c(-n3cc(C)nn3)ccc(OC)c2F)cn1Cc1ccc2c(c1)CN(C)CC2 [Example 148, N-{[2-fluoro-3-methoxy-6-(4-methyl-1,2,3-triazol-1-yl)phenyl]methyl}-2-(methoxymethyl)-1-[(2-methyl-3,4-dihydro-1H-isoquinolin-7-yl)methyl]imidazole-4-carboxamide] | > 40 | > 40 | > 1000 | 0.01 to 0.03
7 | COCc1nn(Cc2ccc3nc(C)ccc3c2)cc1C(=O)NCc1c(-n2cnnn2)ccc(OC)c1F [RC2, N-{[2-fluoro-3-methoxy-6-(1,2,3,4-tetrazol-1-yl)phenyl]methyl}-3-(methoxymethyl)-1-[(2-methylquinolin-6-yl)methyl]pyrazole-4-carboxamide, reference compound] | 0.218 | > 40 | 20 (≈ 38.7 µM) | < 0.01
8 | COCc1nn(Cc2ccc3c(c2)COCC3)cc1C(=O)NCc1c(-n2cc(C)nn2)ccc(OC)c1F [Example 133, 1-(3,4-dihydro-1H-2-benzopyran-7-ylmethyl)-N-{[2-fluoro-3-methoxy-6-(4-methyl-1,2,3-triazol-1-yl)phenyl]methyl}-3-(methoxymethyl)pyrazole-4-carboxamide] | > 40 | > 40 | 50 (≈ 96 µM) | 0.1 to 1
9 | COCc1nn(Cc2ccc3c(c2)CCN(C)C3)cc1C(=O)NCc1c(-n2cc(C)nn2)ccc(OC)c1F [Example 36, N-{[2-fluoro-3-methoxy-6-(4-methyl-1,2,3-triazol-1-yl)phenyl]methyl}-3-(methoxymethyl)-1-[(2-methyl-3,4-dihydro-1H-isoquinolin-6-yl)methyl]pyrazole-4-carboxamide] | > 4 | > 4 | 880 (≈ 1650 µM) | < 0.01
10 | COCc1nn(Cc2ccc3c(c2)CCN(C)C3)cc1C(=O)NCc1c(-n2ccc(C#N)n2)ccc(OC)c1F [Example 43, N-{[6-(3-cyanopyrazol-1-yl)-2-fluoro-3-methoxyphenyl]methyl}-3-(methoxymethyl)-1-[(2-methyl-3,4-dihydro-1H-isoquinolin-6-yl)methyl]pyrazole-4-carboxamide] | 31.8 | > 40 | 800 (≈ 1470 µM) | < 0.01
11 | COc1ccc(-n2cc(C)nn2)c(CNC(=O)c2ccc(=O)n(Cc3ccc4c(c3)CN(C)CC4)c2)c1F [Example 160, N-{[2-fluoro-3-methoxy-6-(4-methyl-1,2,3-triazol-1-yl)phenyl]methyl}-1-[(2-methyl-3,4-dihydro-1H-isoquinolin-7-yl)methyl]-6-oxopyridine-3-carboxamide] | > 40 | > 40 | 820 (≈ 1590 µM) | < 0.01
12 | CCN1CCc2ccc(Cn3cc(C(=O)NCc4c(-n5cnc(C(F)(F)F)n5)ccc(OC)c4F)c(COC)n3)cc2C1 [Example 25, 1-[(2-ethyl-3,4-dihydro-1H-isoquinolin-7-yl)methyl]-N-({2-fluoro-3-methoxy-6-[3-(trifluoromethyl)-1,2,4-triazol-1-yl]phenyl}methyl)-3-(methoxymethyl)pyrazole-4-carboxamide] | > 40 | > 40 | 1000 (≈ 1660 µM) | < 0.01
13 | COc1ccc(-n2cc(C)nn2)c(CNC(=O)c2cn(Cc3ccc4c(c3)CN(C(C)C)C4)nn2)c1F [Example 153, N-{[2-fluoro-3-methoxy-6-(4-methyl-1,2,3-triazol-1-yl)phenyl]methyl}-1-[(2-isopropyl-1,3-dihydroisoindol-5-yl)methyl]-1,2,3-triazole-4-carboxamide] | > 40 | > 40 | 950 (≈ 1880 µM) | < 0.01
14 | COCc1nn(Cc2ccc3c(c2)CCN(C)C3)cc1C(=O)NCc1c(-n2cnc(C(F)F)n2)ccc(OC)c1F [Example 41, N-({6-[3-(difluoromethyl)-1,2,4-triazol-1-yl]-2-fluoro-3-methoxyphenyl}methyl)-3-(methoxymethyl)-1-[(2-methyl-3,4-dihydro-1H-isoquinolin-6-yl)methyl]pyrazole-4-carboxamide] | > 40 | > 40 | > 1000 | < 0.01
15 | COCc1nn(Cc2ccc3c(c2)CN(C)CC3)cc1C(=O)NCc1c(-n2cnc(C)n2)ccc(OC)c1F [Example 4, N-{[2-fluoro-3-methoxy-6-(3-methyl-1,2,4-triazol-1-yl)phenyl]methyl}-3-(methoxymethyl)-1-[(2-methyl-3,4-dihydro-1H-isoquinolin-7-yl)methyl]pyrazole-4-carboxamide] | 1.03 | > 40 | > 1000 | < 0.01
